In ChEMBL document CHEMBL5614403, “Efficient synthesis of novel 1,10 phenanthroline-substituted imidazolium salts: Exploring their anticancer applications” (Eur J Med Chem, 2024):
pIC50: −log10 of the molar value.

Experiments:
MCF-10A = assay: Cytotoxicity against human MCF-10A cells assessed as cell viability incubated for 72 hrs by MTT assay; format: functional, cell-based
MCF7 [1] = assay: Cytotoxicity against human MCF7 cells assessed as cell viability incubated for 72 hrs by MTT assay; format: functional, cell-based; conditions: MCF7, 72 h
MDA-MB-231 [2] = assay: Cytotoxicity against human MDA-MB-231 cells assessed as cell viability incubated for 72 hrs by MTT assay; format: functional, cell-based; conditions: MDA-MB-231, 72 h
[3] = Downregulation of Bcl-2 mRNA expression level in human MCF7 cells assessed as fold change by qRT-PCR analysis; format: functional
DNA = assay: Binding affinity to DNA (unknown origin) assessed as intrinsic binding constant at 0 to 15 uM by ultraviolet-visible spectroscopic analysis; format: nucleic-acid assay; conditions: dose 0-15 µM
[4] = Stability of compound in D2O/DMSO-d6 (20:80) measured upto 1 day by 1H NMR spectroscopic analysis; format: physicochemical; conditions: 24 h
MDA-MB-231 [5] = assay: Downregulation of Bcl-2 protein level in human MDA-MB-231 cells measured after 24 to 72 hrs by Western blot analysis; format: functional, cell-based; conditions: time 24-72 hrs
[6] = Upregulation of Bax mRNA expression level in human MCF7 cells assessed as fold change by qRT-PCR analysis; format: functional
MCF7 [7] = assay: Downregulation of Bcl-2 protein level in human MCF7 cells by Western blot analysis; format: functional, cell-based; conditions: time 24-72 hrs, TDE = time-dependent effect
[8] = Stability of compound in D2O/DMSO-d6 (20:80) measured after 2 days by 1H NMR spectroscopic analysis; format: physicochemical; conditions: 48 h; time 2 day
MCF7 [9] = assay: Upregulation of Bax protein level in human MCF7 cells by Western blot analysis; format: functional, cell-based; conditions: time 24-72 hrs, TDE = time-dependent effect
MDA-MB-231 [10] = assay: Upregulation of Bax protein level in human MDA-MB-231 cells measured after 24 to 72 hrs by Western blot analysis; format: functional, cell-based; conditions: time 24-72 hrs
MDA-MB-231 [11] = assay: Upregulation of Bax protein level in human MDA-MB-231 cells by Western blot analysis; format: functional, cell-based; conditions: time 24-72 hrs, TDE = time-dependent effect
MCF7 [12] = assay: Upregulation of Bax protein level in human MCF7 cells measured after 24 to 72 hrs by Western blot analysis; format: functional, cell-based; conditions: time 24-72 hrs
[13] = Stability of compound in 100 % DMSO-d6 by 1H NMR spectroscopic analysis; format: physicochemical; conditions: 168 h, TDE = time-dependent effect, time < 7 day
MCF7 [14] = assay: Induction of apoptosis in human MCF7 cells incubated for 72 hrs by Annexin V-FITC and PI staining based flow cytometry analysis; format: functional
[15] = Downregulation of Bcl-2 mRNA expression level in human MDA-MB-231 cells assessed as fold change by qRT-PCR analysis; format: functional
MDA-MB-231 [16] = assay: Induction of apoptosis in human MDA-MB-231 cells incubated for 72 hrs by Annexin V-FITC and PI staining based flow cytometry analysis; format: functional
[17] = Upregulation of Bax mRNA expression level in human MDA-MB-231 cells assessed as fold change by qRT-PCR analysis; format: functional
[18] = Selectivity index, ratio of IC50 for human MCF-10A cells to ratio of IC50 for human MDA-MB-231 cells; format: toxicity; conditions: MCF-10A cells versus MDA-MB-231 cells, read-out: Selectivity Index
MDA-MB-231 [19] = assay: Downregulation of Bcl-2 protein level in human MDA-MB-231 cells by Western blot analysis; format: functional, cell-based; conditions: time 24-72 hrs, TDE = time-dependent effect
[20] = Selectivity index, ratio of IC50 for human MCF-10A cells to ratio of IC50 for human MCF-7 cells; format: toxicity; conditions: MCF-10A cells versus MCF-7 cells, read-out: Selectivity Index
MCF7 [21] = assay: Downregulation of Bcl-2 protein level in human MCF7 cells measured after 24 to 72 hrs by Western blot analysis; format: functional, cell-based; conditions: time 24-72 hrs
MDA-MB-231 [22] = assay: Cytotoxicity against human MDA-MB-231 cells assessed as cell viability at 100 uM incubated for 72 hrs by MTT assay relative to control; format: functional; conditions: read-out: Activity
MCF7 [23] = assay: Cytotoxicity against human MCF7 cells assessed as cell viability at 100 uM incubated for 72 hrs by MTT assay relative to control; format: functional; conditions: read-out: Activity
HepG2 = assay: Antitumor activity against human HepG2 cells incubated for 72 hrs by MTT assay; format: functional, cell-based; conditions: HepG2, 72 h

SMILES | pIC50 (MCF-10A) | pIC50 (MCF7 [1]) | pIC50 (MDA-MB-231 [2]) | viability at 100 µM (MDA-MB-231 [22]) [%] | viability at 100 µM (MCF7 [23]) [%] | further results
Cc1cc(C)c(C[n+]2ccn(-c3cc4cccnc4c4ncccc34)c2)c(C)c1 | 4.44 | 4.19 | 4.49 | – | – | –
CCCCCCCCCCCC[n+]1ccn(-c2cc3cccnc3c3ncccc23)c1.[Br-] | 4.19 | 4.81 | 4.89 | – | – | fold change (FC) [3]: 3.9; Kb (DNA): 12600 M⁻¹; Stability [4]: Stable; Activity (MDA-MB-231 [5]): Dose-Dependent Effect; fold change (FC) [6]: 3.4; Activity (MCF7 [7]): Tde; Stability [8]: Unstable; Activity (MCF7 [9]): Tde; Activity (MDA-MB-231 [10]): Dose-Dependent Effect; Activity (MDA-MB-231 [11]): Tde; Activity (MCF7 [12]): Dose-Dependent Effect; Stability [13]: Tde; Activity (MCF7 [14]): 89%; fold change (FC) [15]: 4.2; Activity (MDA-MB-231 [16]): 95%; fold change (FC) [17]: 3.6; selectivity ratio [18]: 5; Activity (MDA-MB-231 [19]): Tde; selectivity ratio [20]: 4.1; Activity (MCF7 [21]): Dose-Dependent Effect
CCCC[n+]1ccn(-c2cc3cccnc3c3ncccc23)c1 | 4.32 | 4.36 | 4.28 | 25.2 | 4.8 | –
Cc1c(C)c(C)c(C[n+]2ccn(-c3cc4cccnc4c4ncccc34)c2)c(C)c1C | 4.49 | 4.30 | 4.43 | – | – | –
c1cnc2c(c1)cc(-n1ccnc1)c1cccnc12 | 3.62 | 3.89 | 4.22 | 39.7 | 61.3 | –
c1ccc(C[n+]2ccn(-c3cc4cccnc4c4ncccc34)c2)cc1 | 4.33 | 4.28 | 4.53 | – | – | –
COc1cccc2c1C(=O)c1c(O)c3c(c(O)c1C2=O)C[C@@](O)(C(=O)CO)C[C@@H]3O[C@H]1C[C@H](N)[C@H](O)[C@H](C)O1 [DOXORUBICIN] | – | – | 5.32 | – | – | –
c1ccc(-c2nc3c4cccnc4c4ncccc4c3[nH]2)cc1 | – | – | – | – | – | pIC50 (HepG2): 6.17
CCCCCCCC[n+]1ccn(-c2cc3cccnc3c3ncccc23)c1 | 4.45 | 4.30 | 4.75 | 10.1 | 21.1 | –
